In ChEMBL document CHEMBL3988442, “University of Dundee, Small-Polar-MMV Screening Library” (2021):
Several values for one entry are separate records, joined by “and”; a condition that tells them apart may be missing. Equal values may be shown once.

Assays:
Shiga toxin 2 = target: T1, Shiga toxin 2 (Escherichia coli O157:H7, UniProt P09385+P09386); test: E. coli 0.157:H7 Shiga Toxin SOP - stx2 screening assay; assay type: functional
T1 sequence (P09385 whole entry): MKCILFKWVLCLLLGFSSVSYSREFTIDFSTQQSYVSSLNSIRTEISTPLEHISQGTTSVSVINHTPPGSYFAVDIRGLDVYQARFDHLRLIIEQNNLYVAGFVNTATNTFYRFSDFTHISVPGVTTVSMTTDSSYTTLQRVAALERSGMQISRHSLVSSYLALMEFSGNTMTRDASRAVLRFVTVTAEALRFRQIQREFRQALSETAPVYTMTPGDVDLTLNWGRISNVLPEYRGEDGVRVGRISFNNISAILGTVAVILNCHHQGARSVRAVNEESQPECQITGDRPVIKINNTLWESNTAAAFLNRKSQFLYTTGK
T1 sequence (P09386 whole entry): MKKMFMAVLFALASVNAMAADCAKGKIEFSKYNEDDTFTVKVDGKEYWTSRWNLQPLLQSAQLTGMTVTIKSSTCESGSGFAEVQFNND

[1] = microbe, parasite or virus in culture; conditions: Mycobacterium tuberculosis, 72 h, read-out: pIC50 (converted)
[2] = microbe, parasite or virus in culture; conditions: Mycobacterium tuberculosis, 96 h, read-out: pIC50 (converted)
[3] = target: T2, Tyrosyl-tRNA synthetase, putative (Trypanosoma cruzi (strain CL Brener), UniProt Q4DSP6); test: Trypanosoma cruzi tyrosyl tRNA synthetase (TcYRS) _High Tyrosine SOP; assay type: functional
T2 sequence (Q4DSP6 whole entry): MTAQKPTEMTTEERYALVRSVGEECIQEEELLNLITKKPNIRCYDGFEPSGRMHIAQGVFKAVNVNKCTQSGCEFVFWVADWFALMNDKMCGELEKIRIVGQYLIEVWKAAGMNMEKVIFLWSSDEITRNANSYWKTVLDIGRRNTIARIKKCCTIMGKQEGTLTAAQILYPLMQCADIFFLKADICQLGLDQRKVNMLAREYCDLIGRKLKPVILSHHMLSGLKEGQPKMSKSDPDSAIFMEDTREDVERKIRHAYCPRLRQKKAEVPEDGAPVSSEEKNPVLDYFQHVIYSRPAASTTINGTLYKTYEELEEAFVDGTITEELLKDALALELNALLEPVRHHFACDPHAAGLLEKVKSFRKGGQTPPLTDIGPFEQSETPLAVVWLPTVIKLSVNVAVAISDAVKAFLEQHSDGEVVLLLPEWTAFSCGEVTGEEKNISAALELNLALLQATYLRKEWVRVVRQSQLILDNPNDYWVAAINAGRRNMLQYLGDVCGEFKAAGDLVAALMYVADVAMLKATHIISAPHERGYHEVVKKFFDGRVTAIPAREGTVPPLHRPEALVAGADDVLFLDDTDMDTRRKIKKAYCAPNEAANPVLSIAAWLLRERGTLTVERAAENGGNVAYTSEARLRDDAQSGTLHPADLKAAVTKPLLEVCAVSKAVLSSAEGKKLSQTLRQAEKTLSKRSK

Histidine--tRNA ligase = target: T3, Histidine--tRNA ligase (Leishmania infantum, UniProt A4I591); test: Leishmania infantum Histidine tRNA synthetase (LdHisRS); assay type: functional
T3 sequence (A4I591 whole entry): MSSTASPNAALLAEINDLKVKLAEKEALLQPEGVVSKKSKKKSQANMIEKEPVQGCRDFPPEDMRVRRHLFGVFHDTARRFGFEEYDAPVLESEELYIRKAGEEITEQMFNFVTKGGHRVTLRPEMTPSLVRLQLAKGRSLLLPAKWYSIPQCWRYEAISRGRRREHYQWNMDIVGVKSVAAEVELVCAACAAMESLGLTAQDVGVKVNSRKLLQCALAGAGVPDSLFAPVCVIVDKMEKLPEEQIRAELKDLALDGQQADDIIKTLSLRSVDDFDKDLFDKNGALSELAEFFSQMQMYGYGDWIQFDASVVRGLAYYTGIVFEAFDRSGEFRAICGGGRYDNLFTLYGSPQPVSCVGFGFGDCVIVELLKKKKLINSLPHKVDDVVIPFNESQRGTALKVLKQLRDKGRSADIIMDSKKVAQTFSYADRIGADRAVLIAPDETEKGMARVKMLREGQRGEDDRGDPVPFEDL

[4] = target: T2, Tyrosyl-tRNA synthetase, putative; test: Trypanosoma cruzi tyrosyl tRNA synthetase (TcYRS) SOP; assay type: functional
Leishmania donovani = test: Leishmania intramacrophage assay; assay type: functional, organism-based; conditions: Leishmania donovani
Lysine--tRNA ligase = Lysine--tRNA ligase (Plasmodium falciparum (isolate 3D7), UniProt Q8IDJ8); test: Pf-KRS-1 (Lysyl-RNA Synthetase-1, KRS-1, cytosolic KRS) from Plasmodium falciparum. Inhibitor assay, 384 well plate, luminescence read.; assay type: functional
[5] = target: Protein translocase subunit SecA (Escherichia coli (strain K12), UniProt P10408); test: Assay to Identify E. coli SecA ATPase Inhibitors; assay type: functional
[6] = target: Chromo domain-containing protein 1 (Saccharomyces cerevisiae (strain ATCC 204508 / S288c) (Baker's yeast), UniProt P32657); test: ScCHD-1 Enzyme Inhibition Assay; assay type: functional
[7] = target: Polyketide synthase Pks13 (Mycobacterium tuberculosis (strain ATCC 25618 / H37Rv), UniProt I6X8D2); test: Mycobacterium tuberculosis Polyketide synthase 13 Thioesterase (PKS13); assay type: functional
[8] = To identify inhibition of the IFN signalling (Jak-Stat) pathway via expression of an eGFP reporter gene under the control of an IFN-stimulated response element (ISRE) containing MxA promoter.; assay type: functional, Homo sapiens

Chain of Lysine--tRNA ligase (Q8IDJ8 whole entry): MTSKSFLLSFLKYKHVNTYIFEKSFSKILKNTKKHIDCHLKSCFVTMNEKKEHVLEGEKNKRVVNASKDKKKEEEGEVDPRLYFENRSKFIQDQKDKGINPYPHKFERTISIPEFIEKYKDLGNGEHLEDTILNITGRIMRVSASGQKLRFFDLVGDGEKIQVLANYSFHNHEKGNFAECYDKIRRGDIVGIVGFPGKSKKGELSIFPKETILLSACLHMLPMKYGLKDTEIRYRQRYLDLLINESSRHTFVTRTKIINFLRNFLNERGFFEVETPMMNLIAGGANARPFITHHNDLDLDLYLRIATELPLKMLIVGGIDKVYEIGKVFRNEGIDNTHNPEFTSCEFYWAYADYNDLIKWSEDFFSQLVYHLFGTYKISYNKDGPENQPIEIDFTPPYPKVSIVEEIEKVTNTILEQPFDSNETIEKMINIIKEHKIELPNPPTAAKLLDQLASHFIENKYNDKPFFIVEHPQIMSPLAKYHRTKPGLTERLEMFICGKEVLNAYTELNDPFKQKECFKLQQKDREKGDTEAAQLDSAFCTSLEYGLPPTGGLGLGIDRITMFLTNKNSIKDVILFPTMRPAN
Chain of Chromo domain-containing protein 1 (P32657 whole entry, the tested form may be a part): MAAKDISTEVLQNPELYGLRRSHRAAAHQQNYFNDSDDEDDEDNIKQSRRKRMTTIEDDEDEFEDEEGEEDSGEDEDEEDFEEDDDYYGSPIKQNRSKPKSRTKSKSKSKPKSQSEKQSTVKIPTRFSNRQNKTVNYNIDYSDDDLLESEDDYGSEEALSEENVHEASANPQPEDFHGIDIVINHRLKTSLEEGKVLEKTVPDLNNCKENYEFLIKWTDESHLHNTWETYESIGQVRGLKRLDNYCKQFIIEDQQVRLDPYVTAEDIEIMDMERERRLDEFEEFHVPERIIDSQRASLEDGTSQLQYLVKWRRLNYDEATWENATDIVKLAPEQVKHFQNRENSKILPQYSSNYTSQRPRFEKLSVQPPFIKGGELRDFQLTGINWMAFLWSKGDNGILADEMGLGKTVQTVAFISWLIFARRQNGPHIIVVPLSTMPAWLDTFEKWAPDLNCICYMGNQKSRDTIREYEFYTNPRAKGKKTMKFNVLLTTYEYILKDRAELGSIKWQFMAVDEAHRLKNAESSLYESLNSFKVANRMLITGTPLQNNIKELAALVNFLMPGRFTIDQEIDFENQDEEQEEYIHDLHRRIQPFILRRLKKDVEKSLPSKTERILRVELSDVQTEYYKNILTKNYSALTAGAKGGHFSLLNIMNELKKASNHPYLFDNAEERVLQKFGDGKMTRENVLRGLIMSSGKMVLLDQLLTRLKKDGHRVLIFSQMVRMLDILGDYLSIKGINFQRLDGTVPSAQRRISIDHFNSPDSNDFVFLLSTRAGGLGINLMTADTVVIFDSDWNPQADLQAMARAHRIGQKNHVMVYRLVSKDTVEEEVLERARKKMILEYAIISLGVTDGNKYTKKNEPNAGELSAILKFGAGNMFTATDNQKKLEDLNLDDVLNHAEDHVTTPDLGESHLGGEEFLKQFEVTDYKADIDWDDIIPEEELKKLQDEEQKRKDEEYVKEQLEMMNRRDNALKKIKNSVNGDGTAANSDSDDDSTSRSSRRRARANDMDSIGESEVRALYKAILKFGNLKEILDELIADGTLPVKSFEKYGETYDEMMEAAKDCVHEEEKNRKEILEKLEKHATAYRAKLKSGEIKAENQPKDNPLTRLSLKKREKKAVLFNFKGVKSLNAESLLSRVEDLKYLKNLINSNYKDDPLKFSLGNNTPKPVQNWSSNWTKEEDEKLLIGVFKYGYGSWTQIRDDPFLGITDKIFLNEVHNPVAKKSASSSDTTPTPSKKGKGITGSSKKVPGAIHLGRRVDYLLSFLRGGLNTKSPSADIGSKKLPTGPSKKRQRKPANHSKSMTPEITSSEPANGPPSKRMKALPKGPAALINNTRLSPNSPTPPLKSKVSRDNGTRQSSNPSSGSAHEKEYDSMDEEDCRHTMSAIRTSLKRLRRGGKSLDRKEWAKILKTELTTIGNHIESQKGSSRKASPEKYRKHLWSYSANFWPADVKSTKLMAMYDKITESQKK
Chain of Protein translocase subunit SecA (P10408 whole entry, the tested form may be a part): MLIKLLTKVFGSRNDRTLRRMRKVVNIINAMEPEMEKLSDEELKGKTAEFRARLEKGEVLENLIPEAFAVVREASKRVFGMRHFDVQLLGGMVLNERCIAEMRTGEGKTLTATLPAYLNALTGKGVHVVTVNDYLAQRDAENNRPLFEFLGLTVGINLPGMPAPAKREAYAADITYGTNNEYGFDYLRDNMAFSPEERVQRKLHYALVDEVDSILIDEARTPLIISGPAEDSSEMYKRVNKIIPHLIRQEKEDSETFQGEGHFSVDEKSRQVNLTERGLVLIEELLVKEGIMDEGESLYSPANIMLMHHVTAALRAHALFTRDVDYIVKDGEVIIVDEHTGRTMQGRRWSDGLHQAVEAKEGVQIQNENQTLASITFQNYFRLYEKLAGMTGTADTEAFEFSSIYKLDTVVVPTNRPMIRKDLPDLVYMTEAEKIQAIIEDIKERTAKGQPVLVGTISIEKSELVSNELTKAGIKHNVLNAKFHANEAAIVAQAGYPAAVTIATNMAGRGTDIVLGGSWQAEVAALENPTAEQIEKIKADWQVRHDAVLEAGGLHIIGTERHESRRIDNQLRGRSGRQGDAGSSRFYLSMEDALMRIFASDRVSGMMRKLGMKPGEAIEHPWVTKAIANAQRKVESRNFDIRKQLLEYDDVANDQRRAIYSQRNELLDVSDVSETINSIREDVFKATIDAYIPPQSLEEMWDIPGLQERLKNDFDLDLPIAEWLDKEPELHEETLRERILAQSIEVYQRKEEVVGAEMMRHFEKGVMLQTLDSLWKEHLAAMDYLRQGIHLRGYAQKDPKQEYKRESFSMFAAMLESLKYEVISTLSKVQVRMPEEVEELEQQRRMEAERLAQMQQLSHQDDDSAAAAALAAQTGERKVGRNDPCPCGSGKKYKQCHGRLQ
Chain of Polyketide synthase Pks13 (I6X8D2 whole entry): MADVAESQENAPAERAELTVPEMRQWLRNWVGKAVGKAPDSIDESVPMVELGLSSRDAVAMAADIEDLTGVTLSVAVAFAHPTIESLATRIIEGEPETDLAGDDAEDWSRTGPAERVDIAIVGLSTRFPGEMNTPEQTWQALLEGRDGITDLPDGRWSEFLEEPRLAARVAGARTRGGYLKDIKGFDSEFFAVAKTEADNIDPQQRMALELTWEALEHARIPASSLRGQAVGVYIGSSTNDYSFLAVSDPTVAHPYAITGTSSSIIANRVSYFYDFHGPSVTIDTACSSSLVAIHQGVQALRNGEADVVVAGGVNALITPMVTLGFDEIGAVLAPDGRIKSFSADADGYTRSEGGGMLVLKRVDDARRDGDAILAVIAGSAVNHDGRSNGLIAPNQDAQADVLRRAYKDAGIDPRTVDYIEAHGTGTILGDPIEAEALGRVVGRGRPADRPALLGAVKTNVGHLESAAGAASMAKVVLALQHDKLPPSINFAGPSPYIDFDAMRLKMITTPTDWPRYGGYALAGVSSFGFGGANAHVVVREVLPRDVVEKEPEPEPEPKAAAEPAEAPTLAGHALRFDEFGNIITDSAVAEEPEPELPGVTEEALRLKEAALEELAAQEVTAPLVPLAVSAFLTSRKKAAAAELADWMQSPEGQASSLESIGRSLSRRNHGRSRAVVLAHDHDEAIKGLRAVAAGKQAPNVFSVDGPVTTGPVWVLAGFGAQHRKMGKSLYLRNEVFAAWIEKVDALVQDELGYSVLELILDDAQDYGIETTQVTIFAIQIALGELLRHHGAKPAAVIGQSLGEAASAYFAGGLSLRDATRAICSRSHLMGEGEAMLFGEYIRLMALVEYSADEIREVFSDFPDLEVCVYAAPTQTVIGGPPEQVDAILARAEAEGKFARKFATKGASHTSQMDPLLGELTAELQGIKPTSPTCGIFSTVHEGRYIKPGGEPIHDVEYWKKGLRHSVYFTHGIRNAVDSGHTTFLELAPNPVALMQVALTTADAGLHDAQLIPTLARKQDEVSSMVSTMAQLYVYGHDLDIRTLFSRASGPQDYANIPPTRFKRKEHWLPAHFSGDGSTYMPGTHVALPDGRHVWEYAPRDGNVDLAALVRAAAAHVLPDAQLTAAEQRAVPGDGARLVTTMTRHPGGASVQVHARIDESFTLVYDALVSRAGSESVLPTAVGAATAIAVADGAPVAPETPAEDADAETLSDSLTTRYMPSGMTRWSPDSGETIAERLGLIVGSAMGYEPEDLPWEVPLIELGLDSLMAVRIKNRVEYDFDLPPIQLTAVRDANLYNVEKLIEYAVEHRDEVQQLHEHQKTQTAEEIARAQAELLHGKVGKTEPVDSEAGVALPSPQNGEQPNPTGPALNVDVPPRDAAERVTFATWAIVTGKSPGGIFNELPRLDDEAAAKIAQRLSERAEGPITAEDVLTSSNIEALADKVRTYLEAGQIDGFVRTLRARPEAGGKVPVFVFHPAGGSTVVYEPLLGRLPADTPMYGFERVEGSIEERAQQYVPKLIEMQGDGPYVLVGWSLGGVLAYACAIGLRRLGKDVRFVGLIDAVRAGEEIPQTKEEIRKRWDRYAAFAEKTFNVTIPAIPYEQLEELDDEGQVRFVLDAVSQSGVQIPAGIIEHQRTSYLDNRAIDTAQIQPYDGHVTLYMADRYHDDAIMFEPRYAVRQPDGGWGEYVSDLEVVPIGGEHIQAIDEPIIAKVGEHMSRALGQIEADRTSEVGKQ

| Structure (SMILES) | IC50 (Shiga toxin 2) | IC50 [3] | IC50 [4] | further results |
| --- | --- | --- | --- | --- |
| Cc1noc(NC(=O)c2ccc(Br)s2)n1 | > 100 µM | – | – | IC50 [1]: 32.8 µM; IC50 [2]: 42.5 µM |
| NC[C@H]1CC[C@H](C(NC(=O)c2cccc(F)c2)c2ccccn2)CC1 (stereo partly specified) | – | > 100 µM and 87.7 µM | 76 µM and > 100 µM | IC50 (Histidine--tRNA ligase): 51 µM and 44.2 µM |
| CN(CCCOc1ccccc1)C(=O)CN1CCc2cncnc2C1 | – | > 100 µM | > 100 µM | IC50 (Histidine--tRNA ligase): 44 µM and 39.2 µM |
| CN(CC1CC1)c1ccc2ccc(C(=O)NCCN3CCOCC3)cn12 | – | 94.4 µM and > 100 µM | > 100 µM | IC50 (Leishmania donovani): > 50.1 µM |
| Cc1cc(-c2nn(C)c(Cl)c2CN2Cc3ccccc3C(O)C2)no1 (stereo unspecified) | 41.5 µM and > 100 µM | – | – | IC50 (Lysine--tRNA ligase): > 50.1 µM; IC50 (Histidine--tRNA ligase): 16.7 µM and 20.3 µM |
| Fc1ccc(OCc2noc(CN3CCc4cncnc4C3)n2)cc1 | – | > 100 µM | > 100 µM | IC50 (Histidine--tRNA ligase): 49.6 µM and 74.9 µM |
| CNC(=O)C1(c2cnccn2)CCCN1C(=O)c1ccn(C)n1 (stereo unspecified) | – | > 100 µM | > 100 µM | – |
| Cc1nc(C(=O)N2CCC(Cc3cnc4[nH]ccc4c3)C2)co1 (stereo unspecified) | > 100 µM | – | – | – |
| CC(C)c1cc(C(F)(F)F)n2nc(CCC(=O)O)nc2n1 | > 100 µM | – | – | – |
| COc1ccc(C2SC(C)=Nc3c2c(=O)[nH]n3C2CCCCC2)cc1O (stereo unspecified) | – | > 100 µM | > 100 µM | – |
| CC(=O)N1CCN(c2ccc3ccc(C(=O)NC4CCCC4)cn23)CC1 | – | 41.1 µM and > 100 µM | > 100 µM | – |
| COc1ccc(C)cc1CN(C)Cc1nc2c(cnn2C)c(=O)[nH]1 | > 100 µM | – | – | – |
| Cc1cccnc1NC(=O)NCc1ccc(N2CCNC(=O)C2)cc1 | – | 52 µM and 31.6 µM | 53.1 µM and 32.9 µM | IC50 (Histidine--tRNA ligase): 19.7 µM and 15 µM |
| CNC(=O)[C@H]1CCS(=O)(=O)[C@@H]2CN(Cc3ccc(OC)cc3)C[C@H]12 | – | > 100 µM | > 100 µM | – |
| CC1(C)OCC(CNC(=O)c2cnn(-c3ccc(Cl)cc3)c2N)O1 (stereo unspecified) | > 100 µM | – | – | IC50 [5]: > 100 µM |
| COCCN1C[C@@H]2CN(c3ncccn3)C[C@@H]2C1=O | – | > 100 µM | > 100 µM | IC50 [6]: > 29.5 µM; IC50 [7]: > 100 µM |
| COCCN1CCN(CCS(=O)(=O)C(F)(F)F)CC1C (stereo unspecified) | 32.8 µM and 33 µM | – | – | – |
| CCOc1ccccc1C(=O)N1CCCC1c1ncc2c(n1)CCNC2 (stereo unspecified) | > 100 µM | – | – | – |
| Fc1cccc(Oc2ccc(CNCC3CNc4ccnn4C3)cn2)c1 (stereo unspecified) | – | > 100 µM | > 100 µM | IC50 (Histidine--tRNA ligase): > 100 µM |
| Nc1cc(CCC2CN(Cc3ccc(C(=O)O)cc3)CCO2)ccn1 (stereo unspecified) | > 100 µM | – | – | – |
| CN(C)S(=O)(=O)N1CCCC(c2cccc(Cc3ccccc3)n2)C1 (stereo unspecified) | > 100 µM | – | – | pIC50 [8]: 4.718 and 4.613 |
